Laboratory results taken from PubChem BioAssay (NCI).
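Results reflect a 48-hour exposure of cells in 96-well plates to compound at five concentrations. TGI: concentration producing complete growth inhibition.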

Tests used:
Assay in all cases: inhibition of tumour cell growth, NCI panel, 48 h
OVCAR-4 ovarian = tested on: OVCAR-4 ovarian
COLO 205 colon = tested on: COLO 205 colon
NCI-H226 lung = tested on: NCI-H226 lung
SK-OV-3 ovarian = tested on: SK-OV-3 ovarian
HL-60(TB) leukemia = tested on: HL-60(TB) leukemia
UO-31 renal = tested on: UO-31 renal
SK-MEL-5 melanoma = tested on: SK-MEL-5 melanoma
RPMI-8226 leukemia = tested on: RPMI-8226 leukemia
A498 renal = tested on: A498 renal
MALME-3M melanoma = tested on: MALME-3M melanoma

NCC(O)CSCc1ccc(Cl)cc1 (stereo not given)
TGI (OVCAR-4 ovarian): > 100 µM
TGI (COLO 205 colon): > 100 µM
TGI (NCI-H226 lung): > 100 µM
TGI (SK-OV-3 ovarian): > 100 µM
TGI (HL-60(TB) leukemia): > 100 µM
TGI (UO-31 renal): > 100 µM
TGI (SK-MEL-5 melanoma): > 100 µM
TGI (RPMI-8226 leukemia): > 100 µM
TGI (A498 renal): > 100 µM
TGI (MALME-3M melanoma): > 100 µM

CN(C)CCn1c(CO)nc2c1c(=O)n(C)c(=O)n2C
TGI (OVCAR-4 ovarian): > 100 µM
TGI (COLO 205 colon): > 100 µM
TGI (NCI-H226 lung): > 100 µM
TGI (SK-OV-3 ovarian): > 100 µM
TGI (HL-60(TB) leukemia): > 100 µM
TGI (UO-31 renal): > 100 µM
TGI (SK-MEL-5 melanoma): > 100 µM
TGI (RPMI-8226 leukemia): > 100 µM
TGI (A498 renal): > 100 µM
TGI (MALME-3M melanoma): > 100 µM

O=C(Nn1c(-c2ccccc2)nc2ccccc2c1=O)c1ccccc1O
TGI (OVCAR-4 ovarian): > 100 µM
TGI (COLO 205 colon): > 100 µM
TGI (NCI-H226 lung): > 100 µM
TGI (SK-OV-3 ovarian): > 100 µM
TGI (HL-60(TB) leukemia): > 100 µM
TGI (UO-31 renal): > 100 µM
TGI (SK-MEL-5 melanoma): 84.3 µM
TGI (RPMI-8226 leukemia): > 100 µM
TGI (A498 renal): > 100 µM
TGI (MALME-3M melanoma): > 100 µM

O=C1c2c(O)cccc2-c2nn(CCNCCO)c3ccc(NCCNCCO)c1c23
TGI (OVCAR-4 ovarian): 2.97 µM
TGI (COLO 205 colon): 1.67 µM
TGI (NCI-H226 lung): 0.0964 µM
TGI (SK-OV-3 ovarian): 1.14 µM
TGI (HL-60(TB) leukemia): 0.123 µM
TGI (UO-31 renal): 10.2 µM
TGI (SK-MEL-5 melanoma): 1.13 µM
TGI (RPMI-8226 leukemia): 7.65 µM
TGI (A498 renal): 0.578 µM
TGI (MALME-3M melanoma): 1.12 µM

O=C1OC[C@H]2[C@@H]1[C@H]1O[C@@H]2C2=C(CCC2)C1=O
TGI (OVCAR-4 ovarian): > 100 µM
TGI (COLO 205 colon): > 100 µM
TGI (NCI-H226 lung): > 100 µM
TGI (SK-OV-3 ovarian): > 100 µM
TGI (HL-60(TB) leukemia): > 100 µM
TGI (UO-31 renal): > 100 µM
TGI (SK-MEL-5 melanoma): > 100 µM
TGI (RPMI-8226 leukemia): > 100 µM
TGI (A498 renal): > 100 µM
TGI (MALME-3M melanoma): > 100 µM

O=C(c1cccs1)N1CCN(C(=O)c2cccs2)C1=S
TGI (OVCAR-4 ovarian): 32.3 µM
TGI (COLO 205 colon): 22.4 µM
TGI (NCI-H226 lung): 34.7 µM
TGI (SK-OV-3 ovarian): 28.9 µM
TGI (HL-60(TB) leukemia): 5.2 µM
TGI (UO-31 renal): 8.5 µM
TGI (SK-MEL-5 melanoma): 18.2 µM
TGI (RPMI-8226 leukemia): > 19.7 µM
TGI (A498 renal): 32.1 µM
TGI (MALME-3M melanoma): 28.7 µM

Cc1ccccc1-c1nc2c(C(=O)NCCN(C)C)cccc2[nH]1
TGI (OVCAR-4 ovarian): > 100 µM
TGI (COLO 205 colon): 51.9 µM
TGI (NCI-H226 lung): 48 µM
TGI (SK-OV-3 ovarian): > 100 µM
TGI (HL-60(TB) leukemia): > 74.6 µM
TGI (UO-31 renal): 68.7 µM
TGI (SK-MEL-5 melanoma): 53.7 µM
TGI (RPMI-8226 leukemia): 73.4 µM
TGI (A498 renal): > 100 µM
TGI (MALME-3M melanoma): > 62.2 µM

CN(C)CCCNc1ccc2nnn3c4ccc(O)cc4c(=O)c1c23
TGI (OVCAR-4 ovarian): 18.5 µM
TGI (COLO 205 colon): 15.8 µM
TGI (NCI-H226 lung): 17.3 µM
TGI (SK-OV-3 ovarian): 23.4 µM
TGI (HL-60(TB) leukemia): > 46.9 µM
TGI (UO-31 renal): 9.79 µM
TGI (SK-MEL-5 melanoma): 19.7 µM
TGI (RPMI-8226 leukemia): 29.6 µM
TGI (A498 renal): 20.1 µM
TGI (MALME-3M melanoma): 23.1 µM

O=C(CCN1CCN2c3ccccc3CCC2C1)c1ccc(F)cc1 (stereo not given)
TGI (OVCAR-4 ovarian): 37.8 µM
TGI (COLO 205 colon): 44.4 µM
TGI (NCI-H226 lung): 98.6 µM
TGI (SK-OV-3 ovarian): > 100 µM
TGI (HL-60(TB) leukemia): 89.6 µM
TGI (UO-31 renal): 40.8 µM
TGI (SK-MEL-5 melanoma): 49.9 µM
TGI (RPMI-8226 leukemia): > 100 µM
TGI (A498 renal): > 100 µM
TGI (MALME-3M melanoma): 49.2 µM

O=C(N/N=C/C=C/c1ccccc1)c1ccccc1Nc1ccccc1C(=O)N/N=C/C=C/c1ccccc1
TGI (OVCAR-4 ovarian): > 100 µM
TGI (COLO 205 colon): > 100 µM
TGI (NCI-H226 lung): > 100 µM
TGI (SK-OV-3 ovarian): > 100 µM
TGI (HL-60(TB) leukemia): > 100 µM
TGI (UO-31 renal): > 100 µM
TGI (SK-MEL-5 melanoma): > 100 µM
TGI (RPMI-8226 leukemia): > 100 µM
TGI (A498 renal): > 100 µM
TGI (MALME-3M melanoma): > 100 µM

CC(C)/C(Cl)=N\OC(NC(=O)P(=O)(c1ccccc1)c1ccccc1)(C(F)(F)F)C(F)(F)F
TGI (OVCAR-4 ovarian): 25.1 µM
TGI (COLO 205 colon): 26.5 µM
TGI (NCI-H226 lung): 38.4 µM
TGI (SK-OV-3 ovarian): > 100 µM
TGI (HL-60(TB) leukemia): 30.9 µM
TGI (UO-31 renal): 21 µM
TGI (SK-MEL-5 melanoma): 26.7 µM
TGI (RPMI-8226 leukemia): 37.5 µM
TGI (A498 renal): 28.6 µM
TGI (MALME-3M melanoma): 20.9 µM

O=c1[nH]n(Cc2ccccc2)c2ccc([N+](=O)[O-])cc12
TGI (OVCAR-4 ovarian): > 100 µM
TGI (COLO 205 colon): > 100 µM
TGI (NCI-H226 lung): > 100 µM
TGI (SK-OV-3 ovarian): > 100 µM
TGI (HL-60(TB) leukemia): > 100 µM
TGI (UO-31 renal): > 100 µM
TGI (SK-MEL-5 melanoma): > 100 µM
TGI (RPMI-8226 leukemia): > 100 µM
TGI (A498 renal): > 100 µM
TGI (MALME-3M melanoma): > 100 µM

CC(C)=CCNc1nc(Cl)nc2nc[nH]c12
TGI (OVCAR-4 ovarian): > 100 µM
TGI (COLO 205 colon): > 100 µM
TGI (NCI-H226 lung): > 100 µM
TGI (SK-OV-3 ovarian): 46 µM
TGI (HL-60(TB) leukemia): > 100 µM
TGI (UO-31 renal): > 100 µM
TGI (SK-MEL-5 melanoma): > 100 µM
TGI (RPMI-8226 leukemia): > 100 µM
TGI (A498 renal): > 100 µM
TGI (MALME-3M melanoma): > 100 µM

CCOC(=O)c1cc2c([N+](=O)[O-])c(N)ccc2s1
TGI (OVCAR-4 ovarian): > 100 µM
TGI (COLO 205 colon): > 100 µM
TGI (NCI-H226 lung): > 100 µM
TGI (SK-OV-3 ovarian): > 100 µM
TGI (HL-60(TB) leukemia): > 100 µM
TGI (UO-31 renal): > 100 µM
TGI (SK-MEL-5 melanoma): > 100 µM
TGI (RPMI-8226 leukemia): > 100 µM
TGI (A498 renal): > 100 µM
TGI (MALME-3M melanoma): > 100 µM

C/C(=N\NC(=S)N(C)C)c1cccnn1
TGI (OVCAR-4 ovarian): > 100 µM
TGI (COLO 205 colon): > 100 µM
TGI (NCI-H226 lung): 4.83 µM
TGI (SK-OV-3 ovarian): > 100 µM
TGI (HL-60(TB) leukemia): > 100 µM
TGI (UO-31 renal): 5.04 µM
TGI (SK-MEL-5 melanoma): > 20.7 µM
TGI (RPMI-8226 leukemia): > 100 µM
TGI (A498 renal): 10.7 µM
TGI (MALME-3M melanoma): > 70.5 µM

C=C=C(CC(CC(=C)Br)(C(=O)OC)C(=O)OC)S(=O)(=O)c1ccccc1
TGI (OVCAR-4 ovarian): 21.2 µM
TGI (COLO 205 colon): 3.26 µM
TGI (NCI-H226 lung): 12.2 µM
TGI (SK-OV-3 ovarian): 30.2 µM
TGI (HL-60(TB) leukemia): > 100 µM
TGI (UO-31 renal): 3.69 µM
TGI (SK-MEL-5 melanoma): 10.3 µM
TGI (RPMI-8226 leukemia): 4.37 µM
TGI (A498 renal): 14.7 µM
TGI (MALME-3M melanoma): 4.11 µM
